Experiments:
Hepatotoxicity [1] = assay: Literature-mined compound from Fourches et al multi-species drug-induced liver injury (DILI) dataset, effect in rodents; conditions: rodentia
Hepatotoxicity [2] = assay: Literature-mined compound from Fourches et al multi-species drug-induced liver injury (DILI) dataset, effect in non-rodents
Hepatotoxicity [3] = assay: Literature-mined compound from Fourches et al multi-species drug-induced liver injury (DILI) dataset, effect in humans; conditions: human

Compound | Hepatotoxicity (Hepatotoxicity [1]) | Hepatotoxicity (Hepatotoxicity [2]) | Hepatotoxicity (Hepatotoxicity [3]) | Hepatotoxicity (Hepatotoxicity [1]; Liver) | Hepatotoxicity (Hepatotoxicity [2]; Liver) | Hepatotoxicity (Hepatotoxicity [3]; Liver)
CC(C(=O)O)c1cccc(C(=O)c2ccccc2)c1 (configuration not stated) [KETOPROFEN] | no drug-induced liver injury reported | no drug-induced liver injury reported | drug-induced liver injury reported | – | – | –
CC1=C2C[C@H]3[C@@H](CC=C4C[C@@H](O)CC[C@@]43C)[C@@H]2CC[C@]12O[C@@H]1C[C@H](C)CN[C@H]1[C@H]2C [CYCLOPAMINE] | no drug-induced liver injury reported | no drug-induced liver injury reported | drug-induced liver injury reported | – | – | –
C[C@H]1COc2c(N3CCN(C)CC3)c(F)cc3c(=O)c(C(=O)O)cn1c23.C[C@H]1COc2c(N3CCN(C)CC3)c(F)cc3c(=O)c(C(=O)O)cn1c23.O [LEVOFLOXACIN] | no drug-induced liver injury reported | no drug-induced liver injury reported | drug-induced liver injury reported | – | – | –
CC(=O)O[C@@]12CO[C@@H]1C[C@H](O)[C@@]1(C)C(=O)[C@H](O)C3=C(C)[C@@H](OC(=O)[C@H](O)[C@@H](NC(=O)OC(C)(C)C)c4ccccc4)C[C@@](O)([C@@H](OC(=O)c4ccccc4)[C@H]21)C3(C)C.O.O.O [DOCETAXEL] | drug-induced liver injury reported | no drug-induced liver injury reported | drug-induced liver injury reported | – | – | –
CN[C@@H](C)Cc1ccccc1 [METHAMPHETAMINE] | drug-induced liver injury reported | no drug-induced liver injury reported | drug-induced liver injury reported | – | – | –
C#C[C@]1(O)CC[C@H]2[C@@H]3CCc4cc(OC5CCCC5)ccc4[C@H]3CC[C@@]21C [QUINESTROL] | drug-induced liver injury reported | no drug-induced liver injury reported | no drug-induced liver injury reported | – | – | –
CCOC(=O)[C@@]1(CCCCCCOc2ccc(Cl)cc2)CO1 [ETOMOXIR] | drug-induced liver injury reported | drug-induced liver injury reported | drug-induced liver injury reported | – | – | –
COC(=O)[C@H]1[C@@H](OC(=O)c2ccccc2)C[C@@H]2CC[C@H]1N2C [COCAINE] | drug-induced liver injury reported | no drug-induced liver injury reported | drug-induced liver injury reported | – | – | –
O=C(O)c1ccccc1Nc1cccc(C(F)(F)F)c1 [FLUFENAMIC ACID] | drug-induced liver injury reported | no drug-induced liver injury reported | drug-induced liver injury reported | – | – | –
COc1cc([C@@H]2c3cc4c(cc3[C@@H](O[C@@H]3O[C@@H]5CO[C@@H](c6cccs6)O[C@H]5[C@H](O)[C@H]3O)[C@H]3COC(=O)[C@H]23)OCO4)cc(OC)c1O [TENIPOSIDE] | drug-induced liver injury reported | no drug-induced liver injury reported | no drug-induced liver injury reported | – | – | –
CCCc1cc(=O)[nH]c(=S)[nH]1 [PROPYLTHIOURACIL] | – | – | – | drug-induced liver injury reported | no drug-induced liver injury reported | drug-induced liver injury reported
O=C1CCC(N2C(=O)c3ccccc3C2=O)C(=O)N1 (configuration not stated) [THALIDOMIDE] | drug-induced liver injury reported | no drug-induced liver injury reported | drug-induced liver injury reported | – | – | –
CC(=O)[C@H]1CC[C@H]2[C@@H]3C=CC4=CC(=O)CC[C@@]4(C)[C@@H]3CC[C@]12C [DYDROGESTERONE] | drug-induced liver injury reported | no drug-induced liver injury reported | drug-induced liver injury reported | – | – | –
CC1(C)C(C=C(Cl)Cl)C1C(=O)OCc1cccc(Oc2ccccc2)c1 (configuration not stated) [PERMETHRIN] | drug-induced liver injury reported | no drug-induced liver injury reported | no drug-induced liver injury reported | – | – | –

— ChEMBL document CHEMBL1697731, “Cheminformatics analysis of assertions mined from literature that describe drug-induced liver injury in different species” (Chem Res Toxicol, 2010)
